# ChEMBL document CHEMBL5512616, “pH regulators and their inhibitors in tumor microenvironment” (Eur J Med Chem, 2024)
# Assays:
# Carbonic anhydrase 2 [1] = biological target: T1, Carbonic anhydrase 2 (Homo sapiens, UniProt P00918)
# Carbonic anhydrase 9 [2] = biological target: T2, Carbonic anhydrase 9 (Homo sapiens, UniProt Q16790)
# MCF7 [3] = assay: cells; conditions: Homo sapiens, MCF7, 96 h
# MCF7 [4] = assay: cells; conditions: Homo sapiens, MCF7, 72 h
# [5] = biological target: T3, Monocarboxylate transporter 1 (Homo sapiens, UniProt P53985)
# T3 sequence (P53985 whole entry): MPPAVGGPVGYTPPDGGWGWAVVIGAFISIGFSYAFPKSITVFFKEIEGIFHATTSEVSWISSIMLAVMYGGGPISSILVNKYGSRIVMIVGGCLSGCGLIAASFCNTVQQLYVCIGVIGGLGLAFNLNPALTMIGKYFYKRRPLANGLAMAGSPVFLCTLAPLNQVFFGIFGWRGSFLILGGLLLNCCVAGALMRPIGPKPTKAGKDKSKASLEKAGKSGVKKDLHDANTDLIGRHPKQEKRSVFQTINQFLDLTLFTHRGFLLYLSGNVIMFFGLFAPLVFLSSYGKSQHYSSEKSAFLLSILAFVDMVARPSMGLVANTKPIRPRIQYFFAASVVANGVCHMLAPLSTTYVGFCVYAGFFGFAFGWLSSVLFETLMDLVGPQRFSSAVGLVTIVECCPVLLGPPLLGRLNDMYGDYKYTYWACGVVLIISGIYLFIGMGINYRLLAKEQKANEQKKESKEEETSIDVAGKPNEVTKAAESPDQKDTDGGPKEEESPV
# [6] = biological target: T4, Monocarboxylate transporter 4 (Homo sapiens, UniProt O15427)
# T4 sequence (O15427 whole entry): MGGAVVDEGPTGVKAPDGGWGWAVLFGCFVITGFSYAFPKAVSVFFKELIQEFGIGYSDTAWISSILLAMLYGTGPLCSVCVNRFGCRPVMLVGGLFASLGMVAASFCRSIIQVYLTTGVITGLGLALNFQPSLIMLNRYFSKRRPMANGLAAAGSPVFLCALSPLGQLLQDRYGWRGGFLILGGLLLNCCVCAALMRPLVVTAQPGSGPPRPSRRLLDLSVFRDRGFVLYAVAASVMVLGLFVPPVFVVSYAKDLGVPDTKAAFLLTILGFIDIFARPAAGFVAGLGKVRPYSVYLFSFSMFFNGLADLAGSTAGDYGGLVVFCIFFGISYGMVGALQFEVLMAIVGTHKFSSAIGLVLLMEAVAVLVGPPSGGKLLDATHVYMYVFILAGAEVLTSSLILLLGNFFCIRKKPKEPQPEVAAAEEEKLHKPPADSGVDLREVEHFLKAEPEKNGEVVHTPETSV
# [7] = biological target: 72 kDa type IV collagenase (Homo sapiens, UniProt P08253); assay: Inhibition of MMP2 (unknown origin)
# Carbonic anhydrase 9 [8] = biological target: T2, Carbonic anhydrase 9; remark: listed apart in the source
# Carbonic anhydrase 2 [9] = biological target: T1, Carbonic anhydrase 2; remark: listed apart in the source
# Carbonic anhydrase 9 [10] = biological target: T2, Carbonic anhydrase 9; remark: listed apart in the source
# Carbonic anhydrase 2 [11] = biological target: T1, Carbonic anhydrase 2; remark: listed apart in the source
# Carbonic anhydrase 9 [12] = biological target: T2, Carbonic anhydrase 9; remark: listed apart in the source
# SK-MEL = assay: cells; conditions: Homo sapiens
# KB = assay: cells; conditions: Homo sapiens
# BT-549 = assay: cells; conditions: Homo sapiens
# SK-OV-3 = assay: cells; conditions: Homo sapiens
# Carbonic anhydrase 9 [13] = biological target: T2, Carbonic anhydrase 9; remark: listed apart in the source
# MCF7 [14] = assay: cells; conditions: Homo sapiens, MCF7, 72 h; remark: listed apart in the source
# Carbonic anhydrase 2 [15] = biological target: T1, Carbonic anhydrase 2; remark: listed apart in the source
# Carbonic anhydrase 9 [16] = biological target: T2, Carbonic anhydrase 9; remark: listed apart in the source
# Carbonic anhydrase 1 = Carbonic anhydrase 1 (Homo sapiens, UniProt P00915)
# Chain of Carbonic anhydrase 1 (P00915 whole entry): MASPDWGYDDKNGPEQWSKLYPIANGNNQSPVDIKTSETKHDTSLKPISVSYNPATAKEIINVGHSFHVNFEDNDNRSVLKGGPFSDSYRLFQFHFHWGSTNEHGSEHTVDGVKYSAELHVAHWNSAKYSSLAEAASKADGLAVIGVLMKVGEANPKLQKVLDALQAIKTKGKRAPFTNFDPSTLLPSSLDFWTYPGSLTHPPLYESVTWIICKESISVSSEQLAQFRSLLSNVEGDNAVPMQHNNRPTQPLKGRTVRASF
# Chain of 72 kDa type IV collagenase (P08253 whole entry): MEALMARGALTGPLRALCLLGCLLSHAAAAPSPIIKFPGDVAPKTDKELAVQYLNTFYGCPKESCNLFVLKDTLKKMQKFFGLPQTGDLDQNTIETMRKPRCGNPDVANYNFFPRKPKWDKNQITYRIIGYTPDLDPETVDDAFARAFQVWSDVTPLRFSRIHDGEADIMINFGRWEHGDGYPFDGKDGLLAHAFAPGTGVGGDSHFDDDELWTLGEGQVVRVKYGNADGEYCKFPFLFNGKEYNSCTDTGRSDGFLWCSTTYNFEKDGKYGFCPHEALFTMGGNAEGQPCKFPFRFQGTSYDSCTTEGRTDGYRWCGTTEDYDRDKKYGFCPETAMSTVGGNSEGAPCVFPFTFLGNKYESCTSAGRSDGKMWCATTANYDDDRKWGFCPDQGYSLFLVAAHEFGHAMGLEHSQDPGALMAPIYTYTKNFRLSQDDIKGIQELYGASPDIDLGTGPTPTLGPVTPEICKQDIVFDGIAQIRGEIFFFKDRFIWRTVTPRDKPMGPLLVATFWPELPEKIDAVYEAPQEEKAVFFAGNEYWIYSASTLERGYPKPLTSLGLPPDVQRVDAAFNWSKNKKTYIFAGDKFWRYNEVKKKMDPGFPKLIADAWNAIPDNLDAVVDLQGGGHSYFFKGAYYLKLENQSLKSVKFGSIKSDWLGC
smiles,measurement,setting,value
CC(C)n1nc(C(=O)Nc2ccc3c(c2)C=CS(=O)(=O)O3)c2ccccc21,Ki,Carbonic anhydrase 2 [1],> 10000 nM
same,Ki,Carbonic anhydrase 9 [2],215 nM
C=C(C)[C@@H]1CC[C@]2(C(=O)O)CC[C@]3(C)[C@H](CC[C@@H]4[C@@]5(C)CC[C@H](O)C(C)(C)[C@@H]5CC[C@]43C)[C@@H]12 [BETULINIC ACID],IC50,MCF7 [3],14000 nM
same,IC50,MCF7 [4],16400 nM
CCOC(=O)Oc1c(OC)cc(C(=O)O[C@@H]2C[C@@H]3CN4CCc5c([nH]c6cc(OC)ccc56)[C@H]4C[C@@H]3[C@H](C(=O)OC)[C@H]2OC)cc1OC [SYROSINGOPINE],IC50,[5],2500 nM
same,IC50,[6],40 nM
N[C@H](CNC(=O)P(=O)(O)O)CNS(=O)(=O)c1ccc(Oc2ccccc2)cc1,IC50,[7],15000 nM
same,IC50,Carbonic anhydrase 9 [8],6220 nM
CC(C)(O)[C@@H](O)COc1c2occc2cc2ccc(=O)oc12,Ki,Carbonic anhydrase 2 [9],> 10000 nM
same,Ki,Carbonic anhydrase 9 [10],27.5 nM
same,Ki,Carbonic anhydrase 2 [11],> 10000 nM
same,Ki,Carbonic anhydrase 9 [12],27.5 nM
COc1cc(/C=C/C(=O)O)ccc1OCc1cn(-c2cccc([N+](=O)[O-])c2)nn1,IC50,SK-MEL,9 µg/mL
same,IC50,KB,8 µg/mL
same,IC50,BT-549,9.4 µg/mL
same,IC50,SK-OV-3,> 10 µg/mL
C=C(C)[C@@H]1CC[C@]2(COS(N)(=O)=O)CC[C@]3(C)[C@H](CC[C@@H]4[C@@]5(C)CC[C@H](OC(C)=O)C(C)(C)[C@@H]5CC[C@]43C)[C@@H]12,Ki,Carbonic anhydrase 9 [13],1.25 nM
same,IC50,MCF7 [3],7020 nM
same,IC50,MCF7 [14],11100 nM
NS(=O)(=O)c1ccc(N=C2C(=O)Nc3ccccc32)cc1,Ki,Carbonic anhydrase 2 [15],33 nM
same,Ki,Carbonic anhydrase 9 [16],6.5 nM
same,IC50,Carbonic anhydrase 1,65 nM
